Species on record: Rattus norvegicus
Assay: DrugMatrix - Regimen: Daily Repeat
Format: toxicity, organism-based, Sprague-Dawley
Parameters: regimen Daily Repeat, gender Male, age 6-8 weeks
Conditions: in vivo, po, route oral GAVAGE, vehicle 100 % WATER; for URIC ACID / ALANINE AMINOTRANSFERASE / ALKALINE PHOSPHATASE / ASPARTATE AMINOTRANSFERASE / BLOOD UREA NITROGEN / CARBON DIOXIDE / CHLORIDE / CHOLESTEROL / CREATINE PHOSPHOKINASE / CREATININE / GLUCOSE / LACTATE DEHYDROGENASE / LIPASE / PHOSPHORUS / POTASSIUM / SODIUM / TOTAL BILIRUBIN / TOTAL PROTEIN: tissue Plasma; for ABSOLUTE BASOPHIL / ABSOLUTE EOSINOPHIL / ABSOLUTE LYMPHOCYTE / ABSOLUTE MONOCYTE / ABSOLUTE SEGMENTED NEUTROPHIL / BASOPHIL / EOSINOPHIL / ERYTHROCYTE COUNT / HEMATOCRIT / HEMOGLOBIN / LEUKOCYTE COUNT / LYMPHOCYTE / MEAN CORPUSCULAR HEMOGLOBIN / MEAN CORPUSCULAR HEMOGLOBIN CONCENTRATION / MEAN CORPUSCULAR VOLUME / MONOCYTE / NEUTROPHIL / NUCLEATED RED BLOOD CELLS: tissue Blood
[1] = 18 mg/kg, 120 h, dose level Low, time 5 day
[2] = 73 mg/kg, 72 h, dose level High, time 3 day
[3] = 73 mg/kg, 120 h, dose level High, time 5 day

CN(C)CCCN1c2ccccc2Sc2ccc(Cl)cc21 [CHLORPROMAZINE]
URIC ACID (18 mg/kg, 72 h, dose level Low, time 3 day): 0.4 mg/dL
ABSOLUTE BASOPHIL [1]: 0 CELLS/uL
ABSOLUTE EOSINOPHIL [1]: 76 CELLS/uL
ABSOLUTE LYMPHOCYTE [1]: 7709.67 CELLS/uL
ABSOLUTE MONOCYTE [1]: 216 CELLS/uL
ABSOLUTE SEGMENTED NEUTROPHIL [1]: 898.33 CELLS/uL
BASOPHIL [1]: 0%
EOSINOPHIL [1]: 0.67%
ERYTHROCYTE COUNT [1]: 5.62 x10E6/uL
HEMATOCRIT [1]: 36.23%
HEMOGLOBIN [1]: 13.87 G/DL
LEUKOCYTE COUNT [1]: 8.9 x10E3/uL
LYMPHOCYTE [1]: 87%
MEAN CORPUSCULAR HEMOGLOBIN [1]: 24.7 pg
MEAN CORPUSCULAR HEMOGLOBIN CONCENTRATION [1]: 38.27 G/DL
MEAN CORPUSCULAR VOLUME [1]: 64.5 fL
MONOCYTE [1]: 2.33%
NEUTROPHIL [1]: 10%
NUCLEATED RED BLOOD CELLS [1]: 0 /100WBC
ALANINE AMINOTRANSFERASE [1]: 54.67 u/L
ALKALINE PHOSPHATASE [1]: 255.67 u/L
ASPARTATE AMINOTRANSFERASE [1]: 80.33 u/L
BLOOD UREA NITROGEN [1]: 14.33 mg/dL
CARBON DIOXIDE [1]: 29.33 mmol/L
CHLORIDE [1]: 102.33 MEQ/L
CHOLESTEROL [1]: 84.67 mg/dL
CREATINE PHOSPHOKINASE [1]: 218.67 u/L
CREATININE [1]: 0.12 mg/dL
GLUCOSE [1]: 141.33 mg/dL
LACTATE DEHYDROGENASE [1]: 69.67 u/L
LIPASE [1]: 9 u/L
PHOSPHORUS [1]: 11.6 mg/dL
POTASSIUM [1]: 5.95 MEQ/L
SODIUM [1]: 145.57 MEQ/L
TOTAL BILIRUBIN [1]: 0.13 mg/dL
URIC ACID [1]: 0.6 mg/dL
ABSOLUTE BASOPHIL [2]: 0 CELLS/uL
ABSOLUTE EOSINOPHIL [2]: 0 CELLS/uL
ABSOLUTE LYMPHOCYTE [2]: 7383 CELLS/uL
ABSOLUTE MONOCYTE [2]: 208 CELLS/uL
ABSOLUTE SEGMENTED NEUTROPHIL [2]: 342.33 CELLS/uL
BASOPHIL [2]: 0%
EOSINOPHIL [2]: 0%
ERYTHROCYTE COUNT [2]: 5.6 x10E6/uL
HEMATOCRIT [2]: 35.37%
HEMOGLOBIN [2]: 13.77 G/DL
LEUKOCYTE COUNT [2]: 7.93 x10E3/uL
LYMPHOCYTE [2]: 92.33%
MEAN CORPUSCULAR HEMOGLOBIN [2]: 24.63 pg
MEAN CORPUSCULAR HEMOGLOBIN CONCENTRATION [2]: 38.93 G/DL
MEAN CORPUSCULAR VOLUME [2]: 63.17 fL
MONOCYTE [2]: 3%
NEUTROPHIL [2]: 4.67%
NUCLEATED RED BLOOD CELLS [2]: 0 /100WBC
ALANINE AMINOTRANSFERASE [2]: 56 u/L
ALKALINE PHOSPHATASE [2]: 291.33 u/L
ASPARTATE AMINOTRANSFERASE [2]: 84 u/L
BLOOD UREA NITROGEN [2]: 14.33 mg/dL
CARBON DIOXIDE [2]: 37.67 mmol/L
CHLORIDE [2]: 101 MEQ/L
CHOLESTEROL [2]: 99 mg/dL
CREATINE PHOSPHOKINASE [2]: 176.33 u/L
CREATININE [2]: 0.27 mg/dL
GLUCOSE [2]: 154.67 mg/dL
LACTATE DEHYDROGENASE [2]: 52.67 u/L
LIPASE [2]: 12 u/L
PHOSPHORUS [2]: 8.2 mg/dL
POTASSIUM [2]: 5.02 MEQ/L
SODIUM [2]: 145.37 MEQ/L
TOTAL BILIRUBIN [2]: 0.13 mg/dL
TOTAL PROTEIN [2]: 5.7 G/DL
URIC ACID [2]: 0.4 mg/dL
ABSOLUTE BASOPHIL [3]: 0 CELLS/uL
ABSOLUTE EOSINOPHIL [3]: 148.67 CELLS/uL
ABSOLUTE LYMPHOCYTE [3]: 10432 CELLS/uL
ABSOLUTE MONOCYTE [3]: 268.67 CELLS/uL
ABSOLUTE SEGMENTED NEUTROPHIL [3]: 584 CELLS/uL
BASOPHIL [3]: 0%
EOSINOPHIL [3]: 1.33%
ERYTHROCYTE COUNT [3]: 6.19 x10E6/uL
HEMATOCRIT [3]: 38.2%
HEMOGLOBIN [3]: 14.83 G/DL
LEUKOCYTE COUNT [3]: 11.43 x10E3/uL
LYMPHOCYTE [3]: 91%
MEAN CORPUSCULAR HEMOGLOBIN [3]: 23.93 pg
MEAN CORPUSCULAR HEMOGLOBIN CONCENTRATION [3]: 38.87 G/DL
MEAN CORPUSCULAR VOLUME [3]: 61.63 fL
MONOCYTE [3]: 2.33%
NEUTROPHIL [3]: 5.33%
NUCLEATED RED BLOOD CELLS [3]: 0 /100WBC
ALANINE AMINOTRANSFERASE [3]: 61.67 u/L
ALKALINE PHOSPHATASE [3]: 321.67 u/L
ASPARTATE AMINOTRANSFERASE [3]: 110.67 u/L
BLOOD UREA NITROGEN [3]: 24.67 mg/dL
CARBON DIOXIDE [3]: 27.67 mmol/L
CHLORIDE [3]: 103.33 MEQ/L
CHOLESTEROL [3]: 87.33 mg/dL
CREATINE PHOSPHOKINASE [3]: 231.67 u/L
CREATININE [3]: 0.25 mg/dL
GLUCOSE [3]: 142.33 mg/dL
LACTATE DEHYDROGENASE [3]: 88.67 u/L
LIPASE [3]: 10.33 u/L
PHOSPHORUS [3]: 9.27 mg/dL
POTASSIUM [3]: 5.11 MEQ/L
SODIUM [3]: 145.67 MEQ/L
TOTAL BILIRUBIN [3]: 0.17 mg/dL
TOTAL PROTEIN [3]: 6.07 G/DL
URIC ACID [3]: 0.43 mg/dL

Reference: ChEMBL document CHEMBL3885881, “DrugMatrix”
